Measured values reported in patent US20150258189A1, “HEPATITIS C VIRUS PARTICLES FORMATION PROMOTER, AND METHOD OF PRODUCING HEPATITIS C VIRUS PARTICLES” (priority 2012, published 2015).
Where two headings read alike, the source gives them in different places.

Legend:
Format in all cases: cell-based, hepatitis C virus
HCV JFH1 strain [1] = details: for Promotion ratio (HCV particle production-promoting effect): added after HCV adsorption, 46 h culture, Huh7-it cells, moi=0.1, control (DMSO) = 1.0
Experimental: In this example, the purified lovastatin solution “B15.4.1” (FIG. 1) of Example 1 was used as the “HCV particle formation promoter.” A lovastatin solution prepared by adding a culture medium to the HCV particle formation promoter to adjust each lovastatin concentration at the time of virus inoculation and at the time of culture to from 1.25 to 20 μg/ml was used in the following.
In this example, Huh7-it cells, a highly HCV-permissive cell line derived from Huh7 cells, were used as culture cells. The medium used was Dulbecco's modified Eagle's medium supplemented with 10% fetal calf serum, non-essential amino acids, penicillin, and streptomycin, and the cells were cultured using a 48-well culture plate.
A HCV stock solution to be used to promote formation of HCV particles was prepared by the following method. The HCV strain used was JFH1 strain (genome sequence: GenBank accession number AB047639). RNA having the same sequence as that of the full genome of the HCV JFH1 strain was introduced (transfected) into Huh7-it cells by an electroporation method (van den Hoff M J et al., Nucleic Acids Res., 20:2902, 1992), and the culture supernatant 72 hours after the introduction was collected. The collected culture supernatant was passed through a 0.45-μm filter (Millipore) to remove contaminants, and then added to other Huh7-it cells. An infectivity titer was calculated by measuring the number of HCV-infected cells after 72 hours by a focus method, and a solution adjusted to have an infectivity titer of 5.4×10^4 infectious units/ml was used as the HCV stock solution. The infectivity titer to prepare the HCV stock solution was calculated by an immunostaining method. An anti-HCV-core (clone CP14) monoclonal antibody was used as a primary antibody, and a HRP-labeled goat anti-mouse antibody was used as a labeling antibody. Konica Immunostain HRP-1000 (Konica Minolta) was added, and the number of virus antigen-positive cell populations stained in blue (immunofocus; also called focus) was measured under a microscope. Thus, the infectivity titer was calculated.
A mixture of the HCV stock solution (5.4×10^4 infectious units/ml) prepared in the above-mentioned section 3) and the HCV particle formation promoter was inoculated into culture cells, and the virus was adsorbed to the cells at 37° C. for 2 hours. Then, the virus liquid was removed, and the cells were washed three times with a culture medium. After that, in the same manner as described above, the cells were cultured for […] with the addition of the HCV particle formation promoter (lovastatin concentration: 1.25 to 20 μg/ml). The virus was inoculated into the culture cells so that the multiplicity of infection (moi) was 0.1.
To confirm a virus-producing ability, the culture medium of the infected cells was centrifuged at 10,000 rpm for 3 minutes, and the centrifugation supernatant was used as a sample liquid. The sample liquid was inoculated into non-HCV-infected Huh7-it cells. […] The number of staining-positive cells was measured, and the HCV infectivity titer was measured.
In this example, the crude lovastatin solution “B15” (FIG. 1) of Example 1 was used as the “HCV particle formation promoter.” A lovastatin solution prepared by adding a culture medium to the HCV particle formation promoter to adjust each lovastatin concentration at the time of virus inoculation and at the time of culture to from 1 to 50 μg/ml was used in the following.
In this example, HCV was inoculated into culture cells to achieve moi=0.1 as in Example 2, and the HCV particle formation promoter was added at the following timings i) to iii).
A mixture of HCV and the HCV particle formation promoter was inoculated into culture cells, and the virus was adsorbed to the cells at 37° C. for 2 hours. Then, the virus liquid was removed, and the cells were washed three times with a culture medium. After that, the cells were cultured for 46 hours with the addition of the HCV particle formation promoter containing lovastatin. […]

HCV JFH1 strain [2] = assay: Intracellular HCV infectivity titer in Huh7-it cells (freeze-thawing method); details: Example 5; 20 μg/ml lovastatin, from adsorption to 48 h after infection; versus DMSO control (FIG. 5)
Experimental: In this example, culture cells were prepared in the same manner as in Example 2 to confirm the influence on the HCV infectivity titer inside and outside Huh7-it cells in adding the HCV particle formation promoter to the cells over a period of from during HCV adsorption to 48 hours after HCV infection. In this example, the purified lovastatin solution “B15.4.1” (FIG. 1) of Example 1 was used as the HCV particle formation promoter. A lovastatin solution prepared by adding a culture medium to the HCV particle formation promoter to adjust each lovastatin concentration at the time of virus inoculation and at the time of culture to 20 μg/ml was used in the following. A system containing dimethylsulfoxide (DMSO) in place of the HCV particle formation promoter was used as a control.
A sample to measure an extracellular HCV infectivity titer was prepared in the same manner as in Example 2. A sample to measure an intracellular HCV infectivity titer was prepared by a freeze-thawing method. First, infected cells were washed with PBS and then detached by trypsin/EDTA treatment, followed by centrifugation to collect a cell pellet. The cell pellet was washed once with PBS, suspended in 0.5 ml of a culture medium, and freeze-thawed at −80° C. three times repeatedly, followed by centrifugation at 12,000 rpm for 5 minutes. […] Each sample was measured for its virus titer in the same manner as in Example 2.

HCV protein (antigen) = assay: Intracellular HCV protein (antigen) synthesis by immunostaining in Huh7-it cells; details: Example 6, 20 μg/ml lovastatin, versus DMSO control (FIG. 7)
HCV RNA = assay: Intracellular HCV RNA copy number by quantitative RT-PCR in Huh7-it cells; details: Example 6; 20 μg/ml lovastatin; days 1, 2, 3 and 4 after infection; versus DMSO control (FIG. 6)
Experimental: In this example, culture cells were prepared in the same manner as in Example 2 to confirm the influence on the HCV RNA copy number in the culture cells on days 1, 2, 3, and 4 after HCV infection in adding the HCV particle formation promoter to Huh7-it cells over a period of from during HCV adsorption to 48 hours after HCV infection. In this example, the purified lovastatin solution “B15.4.1” (FIG. 1) of Example 1 was used as the HCV particle formation promoter. A lovastatin solution prepared by adding a culture medium to the HCV particle formation promoter to adjust each lovastatin concentration at the time of virus inoculation and at the time of culture to 20 μg/ml was used in the following. A system containing DMSO in place of the HCV particle formation promoter was used as a control.
A sample to measure an intracellular HCV RNA copy was prepared in the same manner as in Example 5. Total RNA was extracted from infected cells using Trizol®/Trizol®-LS (Invitrogen). cDNA was synthesized from the total RNA by performing a reverse transcription reaction at 37° C. for 15 minutes and an enzyme inactivation reaction at 98° C. for 5 minutes through the use of a ReverTra Ace® qPCR-Kit (Toyobo). The HCV RNA copy number was measured by a quantitative RT-PCR method using a LightCycler® 480 real-time PCR system. […]

HCV JFH1 strain [3] = details: added after HCV adsorption, 46 h culture, Huh7-it cells, moi=0.1, control (DMSO) = 1.0

CC(C)c1c(C(=O)Nc2ccccc2)c(-c2ccccc2)c(-c2ccc(F)cc2)n1CC[C@@H](O)C[C@@H](O)CC(=O)O [Atorvastatin, calcium (3R,5R)-7-[2-(4-fluorophenyl)-5-isopropyl-3-phenyl-4-[(phenylamino)carbonyl]-1H-pyrrol-1-yl]-3,5-dihydroxyheptanoate]
Promotion ratio (HCV particle production-promoting effect) (HCV JFH1 strain [1]; 1.25 μg/ml): 0.9
Promotion ratio (HCV particle production-promoting effect) (HCV JFH1 strain [1]; 2.5 μg/ml): 4.3
Promotion ratio (HCV particle production-promoting effect) (HCV JFH1 strain [1]; 5.0 μg/ml): 9.4
Promotion ratio (HCV particle production-promoting effect) (HCV JFH1 strain [1]; 20.0 μg/ml): 9.7

CC[C@H](C)C(=O)O[C@H]1C[C@@H](C)C=C2C=C[C@H](C)[C@H](CC[C@@H]3C[C@@H](O)CC(=O)O3)[C@H]21 [B15.4.1]
intracellular HCV particle-producing ability versus control (HCV JFH1 strain [2]): substantially no difference
intracellular HCV protein (antigen) synthesis amount (HCV protein (antigen)): not affected
intracellular HCV RNA replication amount (HCV RNA): not affected
HCV infectivity titer (HCV JFH1 strain [1]; Example 2, 5 to 20 μg/ml of lovastatin, during adsorption and 48 h culture, Huh7-it cells (FIG. 2)): high HCV infectivity titer was found in a lovastatin concentration-dependent manner
virus infectivity titer (HCV JFH1 strain [1]; Example 4, 20 μg/ml lovastatin, added after HCV adsorption (with or without presence during adsorption), 46 h culture (FIG. 4)): high virus infectivity titer was found

CC(C)n1c(/C=C/[C@@H](O)C[C@@H](O)CC(=O)[O-])c(-c2ccc(F)cc2)c2ccccc21.[Na+] [Fluvastatin, sodium (3R,5S,6E)-7-[3-(4-fluorophenyl)-1-(1-methylethyl)-1H-indol-2-yl]-3,5-dihydroxy-6-heptenoate]
Promotion ratio (HCV particle production-promoting effect) (HCV JFH1 strain [1]; 1.25 μg/ml): 9.2
Promotion ratio (HCV particle production-promoting effect) (HCV JFH1 strain [1]; 2.5 μg/ml): 14.3
Promotion ratio (HCV particle production-promoting effect) (HCV JFH1 strain [1]; 5.0 μg/ml): 15.2
Promotion ratio (HCV particle production-promoting effect) (HCV JFH1 strain [1]; 20.0 μg/ml): 7.9

CC[C@H](C)C(=O)O[C@H]1C[C@@H](C)C=C2C=C[C@H](C)[C@H](CC[C@@H]3C[C@@H](O)CC(=O)O3)[C@H]21 [Lovastatin, (1S,3R,7S,8S,8aR)-8-[2-((2R,4R)-4-hydroxy-6-oxotetrahydro-2H-pyran-2-yl)ethyl]-3,7-dimethyl-1,2,3,7,8,8a-hexahydro-1-naphthyl]
Promotion ratio (HCV particle production-promoting effect) (HCV JFH1 strain [1]; 1.25 μg/ml): 0.8
Promotion ratio (HCV particle production-promoting effect) (HCV JFH1 strain [1]; 2.5 μg/ml): 3.5
Promotion ratio (HCV particle production-promoting effect) (HCV JFH1 strain [1]; 5.0 μg/ml): 6.1
Promotion ratio (HCV particle production-promoting effect) (HCV JFH1 strain [1]; 20.0 μg/ml): 11.1

CC[C@H](C)C(=O)O[C@H]1C[C@H](O)C=C2C=C[C@H](C)[C@H](CC[C@@H](O)C[C@@H](O)CC(=O)O)[C@H]21 [Pravastatin, (1S,βR,δR,8aβ)-1,2,6,7,8,8a-hexahydro-β,δ,6β-trihydroxy-2β-methyl-8α-[(S)-2-methyl-1-oxobutoxy]-1β-naphthaleneheptanoate]
Promotion ratio (HCV particle production-promoting effect) (HCV JFH1 strain [3]; 80.0 μg/ml): 17.2
Promotion ratio (HCV particle production-promoting effect) (HCV JFH1 strain [3]; 200.0 μg/ml): 24.7
Promotion ratio (HCV particle production-promoting effect) (HCV JFH1 strain [1]; 5.0 μg/ml): 0.6
Promotion ratio (HCV particle production-promoting effect) (HCV JFH1 strain [1]; 20.0 μg/ml): 2.7

CCC(C)(C)C(=O)O[C@H]1C[C@@H](C)C=C2C=C[C@H](C)[C@H](CC[C@@H]3C[C@@H](O)CC(=O)O3)[C@H]21 [Simvastatin, (1S,3R,7S,8S,8aR)-8-[2-[(2R,4R)-4-hydroxy-6-oxotetrahydropyran-2-yl]ethyl]-3,7-dimethyl-1,2,3,7,8,8a-hexahydro-1-naphthyl]
Promotion ratio (HCV particle production-promoting effect) (HCV JFH1 strain [1]; 1.25 μg/ml): 8.5
Promotion ratio (HCV particle production-promoting effect) (HCV JFH1 strain [1]; 2.5 μg/ml): 14.8
Promotion ratio (HCV particle production-promoting effect) (HCV JFH1 strain [1]; 5.0 μg/ml): 19.5
Promotion ratio (HCV particle production-promoting effect) (HCV JFH1 strain [1]; 20.0 μg/ml): 4.1
